In PubChem BioAssay (NCI):
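Cultured in 96-well plates, cells were exposed to test compound for 48 hours across five concentrations. GI50: concentration for 50% inhibition of growth. The concentration for full growth arrest is given as TGI.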

Key:
Assay in all cases: NCI-60 cell line screen, 48 h
[1] = test system: 786-0 renal
[2] = test system: A498 renal
[3] = test system: A549 NSCLC
[4] = test system: ACHN renal
[5] = test system: CAKI-1 renal
[6] = test system: CCRF-CEM leukemia
[7] = test system: COLO 205 colon
[8] = test system: DU-145 prostate
[9] = test system: HCC-2998 colon
[10] = test system: HCT-116 colon
[11] = test system: HCT-15 colon
[12] = test system: HL-60(TB) leukemia
[13] = test system: HOP-62 NSCLC
[14] = test system: HOP-92 NSCLC
[15] = test system: HS 578T breast
[16] = test system: HT29 colon
[17] = test system: IGROV1 ovarian
[18] = test system: K-562 leukemia
[19] = test system: KM12 colon
[20] = test system: LOX IMVI melanoma
[21] = test system: M14 melanoma
[22] = test system: MALME-3M melanoma
[23] = test system: MCF7 breast
[24] = test system: MDA-MB-231 breast
[25] = test system: MDA-MB-435
[26] = test system: MOLT-4 leukemia
[27] = test system: NCI-H226 lung
[28] = test system: NCI-H23 lung
[29] = test system: NCI-H460 lung
[30] = test system: NCI-H522 lung
[31] = test system: NCI/ADR-RES ovarian
[32] = test system: OVCAR-3 ovarian
[33] = test system: OVCAR-4 ovarian
[34] = test system: OVCAR-5 ovarian
[35] = test system: OVCAR-8 ovarian
[36] = test system: PC-3 prostate
[37] = test system: RPMI-8226 leukemia
[38] = test system: RXF 393 renal
[39] = test system: SF-268 CNS
[40] = test system: SF-295 CNS
[41] = test system: SF-539 CNS
[42] = test system: SK-MEL-2 melanoma
[43] = test system: SK-MEL-28 melanoma
[44] = test system: SK-MEL-5 melanoma
[45] = test system: SK-OV-3 ovarian
[46] = test system: SN12C renal
[47] = test system: SNB-19 CNS
[48] = test system: SNB-75 CNS
[49] = test system: SW-620 colon
[50] = test system: T-47D breast
[51] = test system: TK-10 renal
[52] = test system: U251 CNS
[53] = test system: UACC-257 melanoma
[54] = test system: UACC-62 melanoma
[55] = test system: UO-31 renal
[56] = test system: BT-549 breast
[57] = test system: EKVX NSCLC

SMILES: CC(=O)[O-].CC(=O)[O-].[Pt+2].c1cscn1.c1cscn1
- GI50 [1]: > 100 µM
- TGI [1]: > 100 µM
- GI50 [2]: > 100 µM
- TGI [2]: > 100 µM
- GI50 [3]: 45.1 µM
- TGI [3]: > 100 µM
- GI50 [4]: 19.7 µM
- TGI [4]: 42.2 µM
- GI50 [5]: > 100 µM
- TGI [5]: > 100 µM
- GI50 [6]: 54 µM
- TGI [6]: > 100 µM
- GI50 [7]: > 100 µM
- TGI [7]: > 100 µM
- GI50 [8]: 22.9 µM
- TGI [8]: > 100 µM
- GI50 [9]: > 100 µM
- TGI [9]: > 100 µM
- GI50 [10]: 53.9 µM
- TGI [10]: > 100 µM
- GI50 [11]: 77.5 µM
- TGI [11]: > 100 µM
- GI50 [12]: 36.4 µM
- TGI [12]: > 100 µM
- GI50 [13]: > 100 µM
- TGI [13]: > 100 µM
- GI50 [14]: > 100 µM
- TGI [14]: > 100 µM
- GI50 [15]: > 100 µM
- TGI [15]: > 100 µM
- GI50 [16]: > 100 µM
- TGI [16]: > 100 µM
- GI50 [17]: > 100 µM
- TGI [17]: > 100 µM
- GI50 [18]: 42.7 µM
- TGI [18]: > 100 µM
- GI50 [19]: > 100 µM
- TGI [19]: > 100 µM
- GI50 [20]: 65.7 µM
- TGI [20]: > 100 µM
- GI50 [21]: > 100 µM
- TGI [21]: > 100 µM
- GI50 [22]: > 100 µM
- TGI [22]: > 100 µM
- GI50 [23]: 37.3 µM
- TGI [23]: > 100 µM
- GI50 [24]: > 100 µM
- TGI [24]: > 100 µM
- GI50 [25]: > 100 µM
- TGI [25]: > 100 µM
- GI50 [26]: 36.1 µM
- TGI [26]: > 100 µM
- GI50 [27]: > 100 µM
- TGI [27]: > 100 µM
- GI50 [28]: > 100 µM
- TGI [28]: > 100 µM
- GI50 [29]: > 100 µM
- TGI [29]: > 100 µM
- GI50 [30]: 20.8 µM
- TGI [30]: 42.2 µM
- GI50 [31]: > 100 µM
- TGI [31]: > 100 µM
- GI50 [32]: > 100 µM
- TGI [32]: > 100 µM
- GI50 [33]: 74.3 µM
- TGI [33]: > 100 µM
- GI50 [34]: > 100 µM
- TGI [34]: > 100 µM
- GI50 [35]: 31.3 µM
- TGI [35]: 71.7 µM
- GI50 [36]: > 100 µM
- TGI [36]: > 100 µM
- GI50 [37]: 57.7 µM
- TGI [37]: > 100 µM
- GI50 [38]: > 100 µM
- TGI [38]: > 100 µM
- GI50 [39]: > 100 µM
- TGI [39]: > 100 µM
- GI50 [40]: > 100 µM
- TGI [40]: > 100 µM
- GI50 [41]: 48.3 µM
- TGI [41]: > 100 µM
- GI50 [42]: > 100 µM
- TGI [42]: > 100 µM
- GI50 [43]: > 100 µM
- TGI [43]: > 100 µM
- GI50 [44]: > 100 µM
- TGI [44]: > 100 µM
- GI50 [45]: > 100 µM
- TGI [45]: > 100 µM
- GI50 [46]: > 100 µM
- TGI [46]: > 100 µM
- GI50 [47]: > 100 µM
- TGI [47]: > 100 µM
- GI50 [48]: > 100 µM
- TGI [48]: > 100 µM
- GI50 [49]: 47.5 µM
- TGI [49]: > 100 µM
- GI50 [50]: 62 µM
- TGI [50]: > 100 µM
- GI50 [51]: > 100 µM
- TGI [51]: > 100 µM
- GI50 [52]: 54.5 µM
- TGI [52]: > 100 µM
- GI50 [53]: 31.9 µM
- TGI [53]: 85.3 µM
- GI50 [54]: > 100 µM
- TGI [54]: > 100 µM
- GI50 [55]: > 100 µM
- TGI [55]: > 100 µM

SMILES: CCOC(=O)C(Cc1c[nH]c2ccc(N)cc12)(NC(C)=O)C(=O)OCC
- GI50 [1]: > 1000 µM
- TGI [1]: > 1000 µM
- GI50 [3]: > 1000 µM
- TGI [3]: > 1000 µM
- GI50 [4]: > 1000 µM
- TGI [4]: > 1000 µM
- GI50 [56]: 588 µM
- TGI [56]: > 1000 µM
- GI50 [6]: 656 µM
- TGI [6]: > 1000 µM
- GI50 [7]: 849 µM
- TGI [7]: > 1000 µM
- GI50 [8]: > 1000 µM
- TGI [8]: > 1000 µM
- GI50 [57]: > 1000 µM
- TGI [57]: > 1000 µM
- GI50 [9]: > 1000 µM
- TGI [9]: > 1000 µM
- GI50 [10]: > 1000 µM
- TGI [10]: > 1000 µM
- GI50 [11]: > 1000 µM
- TGI [11]: > 1000 µM
- GI50 [12]: 758 µM
- TGI [12]: > 1000 µM
- GI50 [13]: > 1000 µM
- TGI [13]: > 1000 µM
- GI50 [14]: > 1000 µM
- TGI [14]: > 1000 µM
- GI50 [15]: > 1000 µM
- TGI [15]: > 1000 µM
- GI50 [16]: > 1000 µM
- TGI [16]: > 1000 µM
- GI50 [17]: > 1000 µM
- TGI [17]: > 1000 µM
- GI50 [18]: > 1000 µM
- TGI [18]: > 1000 µM
- GI50 [19]: > 1000 µM
- TGI [19]: > 1000 µM
- GI50 [20]: > 1000 µM
- TGI [20]: > 1000 µM
- TGI [21]: > 1000 µM
- GI50 [22]: > 1000 µM
- TGI [22]: > 1000 µM
- GI50 [23]: > 1000 µM
- TGI [23]: > 1000 µM
- GI50 [24]: > 1000 µM
- TGI [24]: > 1000 µM
- GI50 [25]: > 1000 µM
- TGI [25]: > 1000 µM
- GI50 [27]: > 1000 µM
- TGI [27]: > 1000 µM
- GI50 [28]: > 1000 µM
- TGI [28]: > 1000 µM
- GI50 [29]: > 1000 µM
- TGI [29]: > 1000 µM
- GI50 [30]: > 1000 µM
- TGI [30]: > 1000 µM
- GI50 [31]: > 1000 µM
- TGI [31]: > 1000 µM
- GI50 [32]: > 1000 µM
- TGI [32]: > 1000 µM
- GI50 [33]: > 1000 µM
- TGI [33]: > 1000 µM
- GI50 [34]: > 1000 µM
- TGI [34]: > 1000 µM
- GI50 [35]: > 1000 µM
- TGI [35]: > 1000 µM
- GI50 [36]: > 1000 µM
- TGI [36]: > 1000 µM
- GI50 [38]: > 1000 µM
- TGI [38]: > 1000 µM
- GI50 [39]: > 1000 µM
- TGI [39]: > 1000 µM
- GI50 [40]: > 1000 µM
- TGI [40]: > 1000 µM
- GI50 [41]: > 1000 µM
- TGI [41]: > 1000 µM
- GI50 [43]: > 1000 µM
- TGI [43]: > 1000 µM
- GI50 [44]: > 1000 µM
- TGI [44]: > 1000 µM
- GI50 [45]: > 1000 µM
- TGI [45]: > 1000 µM
- GI50 [46]: > 1000 µM
- TGI [46]: > 1000 µM
- GI50 [47]: > 1000 µM
- TGI [47]: > 1000 µM
- GI50 [48]: > 1000 µM
- TGI [48]: > 1000 µM
- GI50 [49]: > 1000 µM
- TGI [49]: > 1000 µM
- GI50 [50]: 728 µM
- TGI [50]: > 1000 µM
- GI50 [51]: > 1000 µM
- TGI [51]: > 1000 µM
- GI50 [52]: > 1000 µM
- TGI [52]: > 1000 µM
- GI50 [53]: > 1000 µM
- TGI [53]: > 1000 µM
- GI50 [54]: > 1000 µM
- TGI [54]: > 1000 µM
- GI50 [55]: > 1000 µM
- TGI [55]: > 1000 µM
